Measured values as given in US11179391B2, “Compound with kinase inhibitory activity and preparation method and use thereof” (priority 2017, dated 2021).

Tests used:
Format in all cases: biochemical
CDK2/CycA2 = CDK2/CycA2 (Homo sapiens, UniProt P24941); experiment: Determination of CDK activity (Caliper mobility shift, FAM-P8 peptide): CDK2; details: CDK2/CycA2; read-out: CDK2 enzymatic inhibitory activity (IC50)
Experimental: (§1) In vitro, CDK (CDK4, CDK6, CDK1, CDK2, CDK7, and CDK9) kinase activity was tested by the following method.
(§2) 1. Prepared 1× Kinase Buffer and Stop Buffer for the Test
(§3) 1) 1× Kinase Base Buffer (CDK1, 2, and 6).
(§4) 1) Diluted the compound to 50 times of the maximum concentration with 100% DMSO. For example, if the desired maximum inhibitory concentration is 10 μM, then a DMSO solution of 500 μM concentration is required.
(§5) 2) Transferred the compound to a 96-well plate and serially diluted the compound from a 100% DMSO solution at a ratio of 30 μm to 60 μm for a total of 10 concentrations gradients. 3) Transferred 100 μm of 100% DMSO to two empty wells as a no compound control and a no enzyme control.
(§6) 1) Transferred 5 μm of each compound from the 96-well intermediate plate to a 384-well plate. […] A2 of the 96-well plate was transferred to A3 and A4 of the 384-well plate, and so on.
(§7) 1) Prepared a 2.5× enzyme solution: added kinase into 1× kinase base buffer.
(§8) 2) Prepared a 2.5× peptide solution: added FAM-labeled peptide and ATP into the 1× kinase base buffer.
(§9) 3) Transferred the 2.5× enzyme solution to the assay plate: Assay plate already contained 5 μm of 10% DMSO and transferred 10 μm of 2.5× enzyme solution to each well.
(§10) 4) Incubated at room temperature for 10 min.
(§11) 5) Transferred the 2.5× peptide solution to the assay plate: added 10 μm of 2.5× peptide solution to each well of the 384-well assay plate.
(§12) 6) Kinase reaction and termination: incubated at 28° C. for a specified period and added 25 μm of stop buffer to stop the reaction.
(§13) 5. Caliper Reading: Collect Data on Caliper.
(§14) 1) Copied conversion data from Caliper program and Converted conversion values to inhibition values: Inhibition rate (%)=(1−OD value of the compound-OD value of the control well)/(OD value of the control empty-OD value of the control well)*100%.
(§15) 2) Fitted the data in XLFit excel add-in version 4.3.1 to give the corresponding IC50 values.

CDK6/cycD3 = CDK6/cycD3 (Homo sapiens, UniProt Q00534); experiment: Determination of CDK activity (Caliper mobility shift, FAM-P8 peptide): CDK6; details: CDK6/cycD3; read-out: CDK6 enzymatic inhibitory activity (IC50)
Experimental: as §1
(§16) CDK and raw materials used here: CDK4/CycD3 (Carna, Cat. No 04-105, Lot. No 10CBS-0429 C, GST-CDK4(1-303end)/GST-CycD3(1-292end)); CDK6/cycD3 (Carna, Cat. No 04-107, Lot. No 09CBS-0622K, GST-CDK6(1-326(end))); CDK1/CyclinB (Millipore, Cat. 14-450k, Lot. No 25729U, His-CDK1+GST-cyclinB); CDK2/CycA2 (Carna, Cat. No 04-103, Lot. No 06CBS-3024, GST-CDK2 (1-298(end))); CDK7/CyclinH/MAT1 (Millipore, Cat. No 14-476M, Lot. No WAB0365-A, His-CDK7+GST-MAT1+cyclinH); CDK9/cyclinTl (Millipore, Cat. No 14-685K, Lot. No. 2476163-A, His-CDK9+cyclinTl); Peptide FAM-P8 (GL Biochem, Cat. No. 112396, Lot. No. P100804-XZ112396); ATP (Sigma, Cat. No. A7699-1G, CAS No. 987-65-5); DMSO (Sigma, Cat. No. D2650, Lot. No. 474382); EDTA (Sigma, Cat. No. E5134, CAS No. 60-00-4); 96-well plate (Corning, Cat. No. 3365, Lot. No. 22008026); 384-well plate (Corning, Cat. No. 3573, Lot. No. 12608008); Staurosporine (Sigma, Cat. No. S4400-1MG, Lot. No. 046K4080).
as §2, §3, §4, §5
(§17) 4) Prepared intermediate plate and transferred the compound of 10 μm concentration from the original plate to the intermediate plate, and then 90 μm of 1× kinase buffer was added and mixed by shaking for 10 min.
(§18) 4) Preparing intermediate plate and transferred the compound of […] concentration from the original plate to the intermediate plate, and then 90 μm of 1× kinase buffer was added and mixed by shaking for 10 min.
(§19) 1) Transferred 5 μm of each compound from the 96-well intermediate plate to a 384-well plate. For example, A1 of the 96-well plate was transferred to A1 and A2 of the 384-well plate. A2 of the 96-well plate was transferred to A3 and A4 of the 384-well plate, and so on.
as §7, §8, §9, §10, §11, §12, §13, §14, §15

CDK1/CyclinB = CDK1/CyclinB (Homo sapiens, UniProt P06493); experiment: Determination of CDK activity (Caliper mobility shift, FAM-P8 peptide): CDK1; details: CDK1/CyclinB; read-out: CDK1 enzymatic inhibitory activity (IC50)
Experimental: as §1, §2, §3, §4, §5, §6, §7, §8, §9, §10, §11, §12, §13, §14, §15

CDK4/CycD3 = CDK4/CycD3 (Homo sapiens, UniProt P11802); experiment: Determination of CDK activity (Caliper mobility shift, FAM-P8 peptide): CDK4; details: CDK4/CycD3; read-out: CDK4 enzymatic inhibitory activity (IC50)
Experimental: as §1, §16, §2
2) 1× Kinase Base Buffer (CDK4).
as §4, §5, §17, §18, §19, §7, §8, §9, §10, §11, §12, §13, §14, §15

CDK7/CyclinH/MAT1 = CDK7/CyclinH/MAT1 (Homo sapiens, UniProt P50613); experiment: Determination of CDK activity (Caliper mobility shift, FAM-P8 peptide): CDK7; details: CDK7/CyclinH/MAT1; read-out: CDK7 enzymatic inhibitory activity (IC50)
Experimental: as §1, §16, §2
(§20) 3) 1× Kinase Base Buffer (CDK7 and 9).
as §4, §5, §17, §18, §19, §7, §8, §9, §10, §11, §12, §13, §14, §15

CDK9/cyclinTl = CDK9/cyclinTl (Homo sapiens, UniProt P50750); experiment: Determination of CDK activity (Caliper mobility shift, FAM-P8 peptide): CDK9; details: CDK9/cyclinTl; read-out: CDK9 enzymatic inhibitory activity (IC50)
Experimental: as §1, §2, §20, §4, §5, §6, §7, §8, §9, §10, §11, §12, §13, §14, §15

CDK7/CyclinH/MAT1, sequence (P50613 whole entry): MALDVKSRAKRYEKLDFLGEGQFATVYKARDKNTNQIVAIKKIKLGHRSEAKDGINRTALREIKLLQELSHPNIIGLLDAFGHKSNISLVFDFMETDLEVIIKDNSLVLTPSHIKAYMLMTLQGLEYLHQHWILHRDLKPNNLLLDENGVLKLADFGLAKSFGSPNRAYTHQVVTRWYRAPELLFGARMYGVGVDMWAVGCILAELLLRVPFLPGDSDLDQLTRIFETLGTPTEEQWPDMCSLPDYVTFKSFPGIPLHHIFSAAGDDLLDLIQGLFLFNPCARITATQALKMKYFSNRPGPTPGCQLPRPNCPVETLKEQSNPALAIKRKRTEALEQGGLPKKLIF
CDK7/CyclinH/MAT1, sequence (P51946 whole entry partner): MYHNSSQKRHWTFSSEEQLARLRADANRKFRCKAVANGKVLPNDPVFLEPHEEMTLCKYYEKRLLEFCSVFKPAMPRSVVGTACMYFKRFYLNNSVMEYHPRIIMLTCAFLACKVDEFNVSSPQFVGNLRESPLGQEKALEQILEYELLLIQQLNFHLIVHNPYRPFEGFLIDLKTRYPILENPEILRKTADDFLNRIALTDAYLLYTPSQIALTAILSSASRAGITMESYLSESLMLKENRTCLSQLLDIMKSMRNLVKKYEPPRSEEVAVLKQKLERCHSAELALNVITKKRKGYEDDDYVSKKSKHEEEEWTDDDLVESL
CDK7/CyclinH/MAT1, sequence (P51948 whole entry partner): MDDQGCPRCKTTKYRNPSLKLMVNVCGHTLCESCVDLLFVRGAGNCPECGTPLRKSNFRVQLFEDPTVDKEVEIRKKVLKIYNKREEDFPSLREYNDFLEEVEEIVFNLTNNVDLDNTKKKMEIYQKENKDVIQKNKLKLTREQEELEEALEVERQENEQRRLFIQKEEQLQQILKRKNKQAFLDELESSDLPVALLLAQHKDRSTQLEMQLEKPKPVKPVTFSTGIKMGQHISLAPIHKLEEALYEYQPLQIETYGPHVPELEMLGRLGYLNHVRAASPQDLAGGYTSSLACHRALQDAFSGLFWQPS
CDK4/CycD3, sequence (P11802 whole entry): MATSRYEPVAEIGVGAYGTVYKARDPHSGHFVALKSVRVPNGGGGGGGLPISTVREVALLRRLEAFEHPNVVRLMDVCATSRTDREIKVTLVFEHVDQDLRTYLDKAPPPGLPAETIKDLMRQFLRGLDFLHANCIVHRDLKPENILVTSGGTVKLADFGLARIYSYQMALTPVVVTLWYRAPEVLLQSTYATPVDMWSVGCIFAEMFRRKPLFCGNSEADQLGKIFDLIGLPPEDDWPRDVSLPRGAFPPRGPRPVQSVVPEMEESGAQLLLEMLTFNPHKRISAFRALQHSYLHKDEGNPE
CDK4/CycD3, sequence (P30281 whole entry partner): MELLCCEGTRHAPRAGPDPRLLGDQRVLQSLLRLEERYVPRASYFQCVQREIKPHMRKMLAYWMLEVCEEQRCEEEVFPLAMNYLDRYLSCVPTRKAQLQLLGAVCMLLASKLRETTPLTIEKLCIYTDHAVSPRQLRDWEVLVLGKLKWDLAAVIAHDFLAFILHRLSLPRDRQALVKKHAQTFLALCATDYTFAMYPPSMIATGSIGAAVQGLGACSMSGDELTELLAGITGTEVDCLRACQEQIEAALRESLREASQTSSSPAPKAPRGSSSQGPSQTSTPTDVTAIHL
CDK1/CyclinB, sequence (P06493 whole entry): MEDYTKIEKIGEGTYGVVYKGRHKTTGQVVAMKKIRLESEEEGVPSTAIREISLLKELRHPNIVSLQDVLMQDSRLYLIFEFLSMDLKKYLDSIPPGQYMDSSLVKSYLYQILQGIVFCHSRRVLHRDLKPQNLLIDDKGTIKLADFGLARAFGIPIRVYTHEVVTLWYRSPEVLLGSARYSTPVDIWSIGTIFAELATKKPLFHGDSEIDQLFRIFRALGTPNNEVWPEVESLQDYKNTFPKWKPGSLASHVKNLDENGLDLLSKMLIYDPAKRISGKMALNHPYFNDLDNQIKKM
CDK1/CyclinB, sequence (P14635 whole entry partner): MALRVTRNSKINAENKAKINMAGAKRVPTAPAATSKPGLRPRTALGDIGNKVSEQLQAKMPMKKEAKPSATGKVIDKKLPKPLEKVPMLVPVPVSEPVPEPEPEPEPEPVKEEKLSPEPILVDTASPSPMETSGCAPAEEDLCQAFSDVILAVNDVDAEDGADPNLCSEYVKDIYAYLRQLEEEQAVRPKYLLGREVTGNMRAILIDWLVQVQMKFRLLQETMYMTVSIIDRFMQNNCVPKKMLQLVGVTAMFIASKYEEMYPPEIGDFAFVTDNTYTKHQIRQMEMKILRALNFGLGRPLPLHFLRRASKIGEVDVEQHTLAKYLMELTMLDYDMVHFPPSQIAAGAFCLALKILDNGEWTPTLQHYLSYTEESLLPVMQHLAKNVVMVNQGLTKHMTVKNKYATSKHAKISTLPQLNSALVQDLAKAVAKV
CDK9/cyclinTl, sequence (P50750 whole entry): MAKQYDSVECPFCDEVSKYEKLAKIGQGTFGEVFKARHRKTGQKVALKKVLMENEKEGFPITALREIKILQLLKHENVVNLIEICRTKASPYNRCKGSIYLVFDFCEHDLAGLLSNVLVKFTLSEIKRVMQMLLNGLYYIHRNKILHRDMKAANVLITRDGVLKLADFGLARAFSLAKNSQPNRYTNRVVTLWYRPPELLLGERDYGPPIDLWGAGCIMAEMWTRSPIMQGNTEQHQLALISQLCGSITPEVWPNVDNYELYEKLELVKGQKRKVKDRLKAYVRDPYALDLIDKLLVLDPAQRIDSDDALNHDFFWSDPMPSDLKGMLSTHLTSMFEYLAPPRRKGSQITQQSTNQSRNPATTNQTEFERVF
CDK9/cyclinTl, sequence (O60563 whole entry partner): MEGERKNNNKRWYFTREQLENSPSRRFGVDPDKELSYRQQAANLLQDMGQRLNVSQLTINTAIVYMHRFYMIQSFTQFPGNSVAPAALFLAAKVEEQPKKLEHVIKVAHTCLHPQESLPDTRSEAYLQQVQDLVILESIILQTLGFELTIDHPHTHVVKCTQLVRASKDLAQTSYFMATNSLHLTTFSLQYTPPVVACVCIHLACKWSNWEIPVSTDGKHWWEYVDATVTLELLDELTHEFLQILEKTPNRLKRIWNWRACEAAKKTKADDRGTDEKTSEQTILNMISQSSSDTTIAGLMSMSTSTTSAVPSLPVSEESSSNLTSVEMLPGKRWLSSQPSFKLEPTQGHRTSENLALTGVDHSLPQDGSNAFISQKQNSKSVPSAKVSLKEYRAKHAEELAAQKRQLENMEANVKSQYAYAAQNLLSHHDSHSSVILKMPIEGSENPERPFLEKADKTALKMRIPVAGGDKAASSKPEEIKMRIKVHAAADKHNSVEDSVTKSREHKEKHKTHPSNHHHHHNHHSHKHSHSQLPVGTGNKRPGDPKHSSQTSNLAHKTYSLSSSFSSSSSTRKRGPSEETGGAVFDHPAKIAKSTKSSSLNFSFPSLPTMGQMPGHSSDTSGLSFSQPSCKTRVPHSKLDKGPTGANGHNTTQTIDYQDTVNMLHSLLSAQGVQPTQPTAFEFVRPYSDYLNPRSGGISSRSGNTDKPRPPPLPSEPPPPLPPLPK
CDK6/cycD3, sequence (Q00534 whole entry): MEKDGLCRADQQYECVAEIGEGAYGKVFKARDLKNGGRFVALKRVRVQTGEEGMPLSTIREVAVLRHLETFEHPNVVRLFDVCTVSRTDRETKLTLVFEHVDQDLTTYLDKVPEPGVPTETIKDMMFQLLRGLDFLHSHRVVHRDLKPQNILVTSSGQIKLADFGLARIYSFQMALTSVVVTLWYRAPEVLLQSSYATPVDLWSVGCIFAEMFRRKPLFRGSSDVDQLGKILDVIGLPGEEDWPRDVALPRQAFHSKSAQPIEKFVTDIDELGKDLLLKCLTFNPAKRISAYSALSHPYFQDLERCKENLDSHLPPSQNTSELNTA
CDK6/cycD3, sequence (P30281 whole entry partner): as the sequence (P30281 whole entry partner) above

SMILES | IC50 (CDK2/CycA2) | IC50 (CDK6/cycD3) | IC50 (CDK1/CyclinB) | IC50 (CDK4/CycD3) | IC50 (CDK7/CyclinH/MAT1) | IC50 (CDK9/cyclinTl)
COCCN1CCC([C@H](C)c2ccc(Nc3ncc(F)c(-c4cc(F)c5nc(C)n(C(C)C)c5c4)n3)nc2)CC1 (single isomer, unassigned) [Example 80] | 100 to 500 nM | 100 to 500 nM | 500 to 1000 nM | < 100 nM | 1000 to 10000 nM | 100 to 500 nM
Cc1nc2c(F)cc(-c3nc(Nc4ccc(C=C5CCN(C(C)C)CC5)cn4)ncc3F)cc2n1C(C)C [Example 64] | 100 to 500 nM | 100 to 500 nM | 1000 to 10000 nM | < 100 nM | 10000 to 100000 nM | 100 to 500 nM
CC[C@H](c1ccc(Nc2ncc(F)c(-c3cc(F)c4nc(C)n(C(C)C)c4c3)n2)nc1)N1CCNCC1 [Example 5] | 10000 to 100000 nM | 1000 to 10000 nM | 10000 to 100000 nM | < 100 nM | 1000 to 10000 nM | 10000 to 100000 nM
CC(=C1CCNCC1)c1ccc(Nc2ncc(F)c(-c3cc(F)c4nc(C)n(C(C)C)c4c3)n2)nc1 [Example 61] | 100 to 500 nM | 500 to 1000 nM | 500 to 1000 nM | < 100 nM | 1000 to 10000 nM | 100 to 500 nM
Cc1nc2c(F)cc(-c3nc(Nc4ccc([C@@H](C)C5CCN(C(C)C)CC5)cn4)ncc3F)cc2n1C(C)C (single isomer, unassigned) [Example 74] | 100 to 500 nM | 100 to 500 nM | 500 to 1000 nM | < 100 nM | 1000 to 10000 nM | 100 to 500 nM
Cc1nc2c(F)cc(-c3nc(Nc4ccc([C@H](C)C5CCN(CCO)CC5)cn4)ncc3F)cc2n1C(C)C [Example 77] | < 100 nM | < 100 nM | 100 to 500 nM | < 100 nM | 1000 to 10000 nM | 100 to 500 nM
Cc1nc2c(F)cc(-c3nc(Nc4ccc([C@H](C)C5CCN(C6CC6)CC5)cn4)ncc3F)cc2n1C(C)C [Example 75] | < 100 nM | < 100 nM | 100 to 500 nM | < 100 nM | 1000 to 10000 nM | 100 to 500 nM
Cc1nc2c(F)cc(-c3nc(Nc4ccc([C@@H](O)C5CCNCC5)cn4)ncc3F)cc2n1C(C)C [Example 44] | 100 to 500 nM | 100 to 500 nM | 100 to 500 nM | 100 to 500 nM | 100 to 500 nM | 500 to 1000 nM
CCN1CCC(C(O)c2ccc(Nc3ncc(F)c(-c4cc(F)c5nc(C)n(C(C)C)c5c4)n3)nc2)CC1 (single isomer, unassigned) [Example 41, (R or S)-(1-ethylpiperidin-4-yl)(6-((5-fluoro-4-(4-fluoro-1-isopropyl-2-methyl-1H-benzo [d]imidazol-6-yl)pyrimidin-2-yl)amino)pyridin-3-yl) methanol] | < 100 nM | < 100 nM | 100 to 500 nM | < 100 nM | 500 to 1000 nM | 100 to 500 nM
Cc1nc2c(F)cc(-c3nc(Nc4ccc([C@@H](C)C5CCN(CC(F)(F)F)CC5)cn4)ncc3F)cc2n1C(C)C [Example 86] | 100 to 500 nM | 100 to 500 nM | 500 to 1000 nM | < 100 nM | 1000 to 10000 nM | 100 to 500 nM
Cc1nc2c(F)cc(-c3nc(Nc4ccc([C@H](C)C5CCN(C(C)C)CC5)cn4)ncc3F)cc2n1C(C)C (single isomer, unassigned) [Example 73] | < 100 nM | < 100 nM | 100 to 500 nM | < 100 nM | 1000 to 10000 nM | 500 to 1000 nM
C=C(c1ccc(Nc2ncc(F)c(-c3cc(F)c4nc(C)n(C(C)C)c4c3)n2)nc1)C1CCNCC1 [Example 34] | 100 to 500 nM | 100 to 500 nM | 500 to 1000 nM | 100 to 500 nM | 1000 to 10000 nM | 100 to 500 nM
CCN1CCC([C@H](OC)c2ccc(Nc3ncc(F)c(-c4cc(F)c5nc(C)n(C(C)C)c5c4)n3)nc2)CC1 [Example 46] | < 100 nM | 100 to 500 nM | 100 to 500 nM | < 100 nM | 1000 to 10000 nM | 100 to 500 nM
Cc1nc2c(F)cc(-c3nc(Nc4ccc([C@@H](C)C5CCN(C)CC5)cn4)ncc3F)cc2n1C(C)C (single isomer, unassigned) [Example 22] | 100 to 500 nM | 100 to 500 nM | 500 to 1000 nM | < 100 nM | 1000 to 10000 nM | 500 to 1000 nM
CCN1CCC(C(C)c2ccc(Nc3ncc(F)c(-c4cc(F)c5nc(C)n(C(C)C)c5c4)n3)nc2)CC1 (single isomer, unassigned) [Example 18, (R or S)—N-(5-(1-(1-ethylpiperidin-4-yl)ethyl)pyridin-2-yl)-5-fluoro-4-(4-fluoro-1-isopropyl-2-methyl-1H-benzo[d]imidazol-6-yl) pyrimidin-2-amine] | 100 to 500 nM | 100 to 500 nM | 500 to 1000 nM | < 100 nM | 1000 to 10000 nM | 500 to 1000 nM
